Here are results for 59 molecules from the RepoRT retention time repository (doi:10.1038/s41597-019-0305-1).

This data set is described as follows: RP, Waters SunFire C18, 50 × 4.6 mm, 3.5 µm, 0.5 mL/min, estimated dead time 1.1 min; A: water + 0.1% formic acid; B: acetonitrile + 0.1% formic acid; gradient (min/%B) 0/5 7/100 8/100. As to conditions: stereoisomer not certain.

As for `CCCCCC(=O)Cc1cc(O)cc(O)c1C(=O)Oc1cc(CC(=O)CCCCC)c(C(=O)O)c(OC)c1`, the LC retention time is 6.03 min.

Turning to `COc1cc(O)c2c(c1)C(=O)c1cc(C(=O)O)cc(O)c1C2=O`, the LC retention time was 5.72 min.

For `Cc1cc(O)c(C=O)c2c1C(=O)Oc1c(COC(=O)CCC(=O)O)c(O)c(C(=O)O)c(C)c1O2`, the LC retention time is 6.28 min.

With `CCCC(=O)Cc1cc(OC(=O)c2c(O)cc(OC)cc2CC(=O)CCC)cc(O)c1C(=O)O`, the LC retention time was 6.92 min.

As to `CC(=O)OCC1OC(Oc2cc3oc(C)cc(=O)c3c(O)c2C)C(OC(C)=O)C(O)C1O` (centres undefined), the LC retention time was 4.69 min.

As for `CCCCCc1cc(O)cc(O)c1C(=O)O`, the LC retention time is 5.24 min.

For the molecule `CC(=O)OC(C)CC1CC(OC(C)=O)C(C)C(O)C(C)C(=O)OC(CC(C)OC(C)=O)CC(OC(C)=O)C(C)C(O)C(C)C(=O)O1` (centres undefined), the LC retention time is 6.35 min.

Regarding `Cc1cc(O)c(C)c2c1C(=O)Oc1cc(O)c(C(=O)O)c(C)c1O2`, the LC retention time is 5.27 min.

`COC12CC(=O)C(C(C)=O)=C(O)C1(C)c1c(O)c(C(C)=O)c(O)c(C)c1O2` (centres undefined): the LC retention time was 6.88 min.

`CCCc1cc(OC)cc(O)c1C(=O)Oc1c(O)cc(CCC)c(C(=O)OC)c1O`: the LC retention time was 7.11 min.

Consider `CCCCCc1cc(O)c(OC(=O)c2c(CCC)cc(OC)cc2OC)c(O)c1C(=O)O`, for which the LC retention time is 6.84 min.

For `COC(=O)c1c(OC)cc2oc3c(C(=O)O)c(C)cc(OC)c3c2c1C`, the LC retention time was 5.63 min.

Consider `CC1=C(C(=O)O)C(CCCCCCCCCCCCC(C)CO)OC1=O` (centres undefined), for which the LC retention time was 6.93 min.

On to `COC(=O)c1c(C)cc(OC(=O)c2c(C)cc(O)c(C=O)c2O)c(C)c1O`, for which the LC retention time is 7.14 min.

For `COCc1c(O)c(C(=O)O)c(C)c2c1OC(=O)c1c(C)cc(O)c(C=O)c1O2`, the LC retention time was 5.99 min.

Turning to `CCCCCC(=O)Cc1cc(OC)cc(O)c1C(=O)Oc1cc(CCCCC)c(C(=O)O)c(OC)c1`, the LC retention time is 7.1 min.

For the molecule `Cc1cc(O)c(C=O)c(O)c1C(=O)OCc1cc(O)c(C)c(O)c1C(=O)O`, the LC retention time is 6.74 min.

For `CC(=O)C1=C(O)C=C2Oc3c(C(C)=O)c(O)c(C)c(O)c3C2(C)C1=O` (centres undefined), the LC retention time was 7.27 min.

Regarding `COc1cc(O)c2c(c1)C(=O)c1c(O)c(C)cc(O)c1C2=O`, the LC retention time was 4.75 min.

For the molecule `CCCCCc1cc(OC)cc(O)c1C(=O)O`, the LC retention time is 6.19 min.

For `COc1cc(C)c2c(c1C=O)Oc1c(c(C)c(O)c3c1C(O)OC3=O)OC2=O` (centres undefined), the LC retention time is 4.93 min.

For the molecule `COc1cc(O)c2c(c1)C(=O)c1cc(CO)cc(O)c1C2=O`, the LC retention time is 5.36 min.

With `CC1C(=O)OC(CCCCCCCCCC(C)(C)C)C1C(=O)O` (centres undefined), the LC retention time was 8 min.

Turning to `Cc1cc(O)cc2c1C(=O)Oc1cc3c(c(O)c1O2)C(=O)OC3`, the LC retention time was 4.58 min.

In the case of `COc1cc(C)c(C(=O)Oc2cc(C)c(C(=O)O)c(O)c2C)c(O)c1C(=O)O`, the LC retention time was 5.79 min.

For `CCCCCCCCCCCC1OC(=O)C(C)C1C(=O)O` (centres undefined), the LC retention time is 7.46 min.

Turning to `O=C1NC(c2ccccc2)CC(=O)N2CCCC2C(=O)NC(c2ccccc2)CC(=O)N2CCCC12` (centres undefined), the LC retention time was 5.08 min.

As to `C=C1C(=O)OC(CCCCCCCCCCCCC)C1C(=O)O` (centres undefined), the LC retention time is 7.88 min.

Turning to `CCCCCC(=O)Cc1c(Oc2cc(OC)cc3cc(CCCCC)oc(=O)c23)c(O)cc(O)c1C(=O)O`, the LC retention time is 7.09 min.

As for `CCCCCc1cc(OC)c(O)c2c1C(=O)Oc1cc(O)c(C(=O)O)c(CCCCC)c1O2`, the LC retention time is 7.36 min.

Turning to `COc1cc(O)c2c(c1)C(=O)c1cc(C=O)cc(O)c1C2=O`, the LC retention time was 6 min.

As for `CC(C)CC(NC(=O)c1ccccc1)C(=O)OCC(Cc1ccccc1)NC(=O)c1ccccc1` (centres undefined), the LC retention time is 6.82 min.

For the molecule `Cc1cc(OC(=O)c2c(C)cc(OC(=O)c3c(C)cc(O)cc3O)cc2O)cc(O)c1C(=O)O`, the LC retention time is 6.53 min.

Consider `Cc1cc(O)cc2oc3cc(O)cc(O)c3c(=O)c12`, for which the LC retention time is 5.15 min.

Turning to `CC(C)CC(NC(=O)C(=C1OC(=O)C(c2ccccc2)=C1O)c1ccccc1)C(=O)O` (centres undefined), the LC retention time is 7.26 min.

On to `O=C1c2oc3cc(O)c(O)cc3c2C(=O)c2oc3cc(O)c(O)cc3c21`, for which the LC retention time was 4.52 min.

Turning to `COc1cc(C)c2c(=O)c3c(O)cc(OC)cc3oc2c1`, the LC retention time is 6.94 min.

Regarding `COc1cc(C)c(C(=O)Oc2cc(C)c(C(=O)O)c(O)c2)c(O)c1`, the LC retention time was 6 min.

On to `CCCCCc1cc(OC(=O)c2c(O)cc(OC)cc2CCC(=O)CC)cc(O)c1C(=O)O`, for which the LC retention time is 7.31 min.

Regarding `CCCCCCCCCCC1CC(C(=O)O)C(C)C(=O)O1` (centres undefined), the LC retention time was 6.95 min.

Turning to `COc1cc(O)cc(C)c1C(=O)O`, the LC retention time was 2.35 min.

For `Cc1cc(O)c2c(c1)C(=O)c1c(c(O)cc(O)c1-c1c(O)cc(O)c3c1C(=O)c1cc(C)cc(O)c1C3=O)C2=O`, the LC retention time is 6.57 min.

For the molecule `Cc1cc(O)c(C)c2c1C(=O)Oc1c(C)c(O)c(C(=O)O)c(C)c1O2`, the LC retention time was 5.63 min.

For `Cc1cc(=O)c2c(O)cc(O)c(C)c2o1`, the LC retention time is 4.65 min.

`COC1=CC(=O)c2c(O)c3c(c(O)c2C1=O)CC(C)OC3=O` (centres undefined): the LC retention time was 4.41 min.

For the molecule `COc1cc(C)c(C(=O)Oc2c(C)cc(O)c(C=O)c2O)c(O)c1C(=O)O`, the LC retention time was 5.7 min.

On to `CCC(C)CC(C)C(O)C(C)C(=O)OC(C(C)CC(C)CC)C(C)C(=O)O` (centres undefined), for which the LC retention time is 7.83 min.

In the case of `CCC(C)C(NC(=O)c1ccccc1)C(=O)NC(COC(=O)c1ccccc1)C(C)C` (centres undefined), the LC retention time was 6.25 min.

As for `COc1cc(C(=O)O)c2c(c1C)OC(=O)c1c(C)cc(O)c(C=O)c1O2`, the LC retention time was 5.08 min.

In the case of `COc1cc(OC(=O)c2c(C)cc(O)cc2O)cc(C)c1C(=O)Oc1cc(C)c(C(=O)O)c(O)c1`, the LC retention time was 6.2 min.

Consider `CCCCCc1cc(OC(=O)c2c(O)cc(OC)cc2CC(=O)CCC)cc(O)c1C(=O)O`, for which the LC retention time is 7.28 min.

For the molecule `COC(=O)C(CC(C)C)NC(=O)C(=C1OC(=O)C(c2ccccc2)=C1O)c1ccccc1` (centres undefined), the LC retention time was 7.82 min.

Regarding `CCCCCc1cc(O)cc(OC)c1C(=O)Oc1c(O)cc(CCCCC)c(C(=O)O)c1O`, the LC retention time is 6.54 min.

Take `CCCCCCCCCCCCC(C(=O)O)C(C)C(=O)O` (centres undefined): the LC retention time is 7.45 min.

On to `C=C1C(=O)OC(CCCCCCCCCCCCCC(C)O)C1C(=O)O` (centres undefined), for which the LC retention time is 6.53 min.

With `CC(=O)OCC1OC(Oc2c(C)c(O)c3c(=O)cc(C)oc3c2C)C(O)C(O)C1O` (centres undefined), the LC retention time is 4.2 min.

For `Cc1cc(=O)c2c(O)c3c(cc2o1)C(=O)C(=O)C=C3O`, the LC retention time is 3.87 min.

With `Cc1cc(OC(=O)c2c(C)cc(O)cc2O)cc(O)c1C(=O)O`, the LC retention time was 5.3 min.

Regarding `CCCCCCCCCCCCCCC(C(=O)OC)C(CC(=O)O)C(=O)O` (centres undefined), the LC retention time was 8 min.
